Experimental data from US9290451B2 (Hoffmann-La Roche Inc., priority 2011, dated 2016).

Experiments:
[1] = biological target: human CB2 receptors (Homo sapiens (Human), UniProt P34972); assay: cAMP assay, CHO cells expressing human CB2 receptors; format: cell-based; conditions: CHO cells expressing human CB2, cAMP; read-out: human CB2 EC50
Method in brief: (§1)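 Agonist EC50 values come from cAMP levels measured in intact CHO cells. Compounds act for 30 min at 30 °C in the presence of 1 mM IBMX, and cAMP is then detected by time-resolved energy transfer after lysis.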

[2] = biological target: human CB1 receptors (Homo sapiens (Human), UniProt P21554); assay: cAMP assay, CHO cells expressing human CB1 receptors; format: cell-based; conditions: CHO cells expressing human CB1, cAMP; read-out: human CB1 EC50
human CB1 receptors, sequence (P21554 whole entry): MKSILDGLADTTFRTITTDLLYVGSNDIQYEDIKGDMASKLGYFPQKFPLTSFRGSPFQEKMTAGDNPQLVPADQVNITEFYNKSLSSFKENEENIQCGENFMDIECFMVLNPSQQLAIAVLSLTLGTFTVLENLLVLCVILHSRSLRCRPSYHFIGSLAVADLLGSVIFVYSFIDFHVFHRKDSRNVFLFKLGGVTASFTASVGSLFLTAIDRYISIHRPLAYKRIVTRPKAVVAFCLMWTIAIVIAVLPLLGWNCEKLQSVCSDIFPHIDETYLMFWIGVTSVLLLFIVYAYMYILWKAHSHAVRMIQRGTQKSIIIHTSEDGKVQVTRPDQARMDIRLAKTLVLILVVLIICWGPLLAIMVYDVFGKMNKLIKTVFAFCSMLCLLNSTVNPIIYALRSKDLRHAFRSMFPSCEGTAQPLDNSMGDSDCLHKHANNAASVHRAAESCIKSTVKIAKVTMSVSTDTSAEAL
Method in brief: as §1

human CB2 receptors, sequence (P34972 whole entry): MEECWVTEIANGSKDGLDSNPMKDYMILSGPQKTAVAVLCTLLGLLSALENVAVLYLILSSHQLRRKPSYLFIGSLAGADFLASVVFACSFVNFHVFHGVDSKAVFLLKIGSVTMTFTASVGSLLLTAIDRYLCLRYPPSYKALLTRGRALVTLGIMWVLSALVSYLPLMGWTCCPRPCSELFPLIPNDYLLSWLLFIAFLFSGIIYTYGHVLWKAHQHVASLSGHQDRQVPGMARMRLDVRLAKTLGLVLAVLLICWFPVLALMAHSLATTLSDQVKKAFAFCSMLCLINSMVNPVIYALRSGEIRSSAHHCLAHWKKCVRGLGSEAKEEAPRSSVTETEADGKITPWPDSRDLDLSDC

SMILES	EC50 [1] [nM]	EC50 [2] [nM]
COCCOc1nc(C(=O)NC(C)(C)c2noc(C)n2)ccc1C1CC1 [Example 153, 5-Cyclopropyl-6-(2-methoxy-ethoxy)-pyridine-2-carboxylic acid [1-methyl-1-(5-methyl-[1,2,4]oxadiazol-3-yl)-ethyl]-amide]	293	> 10000
CC(C)(CCN1CCOCC1)NC(=O)c1ccc(C2CC2)c(OCC2CC2)n1 [Example 154, 5-Cyclopropyl-6-cyclopropylmethoxy-pyridine-2-carboxylic acid (1,1-dimethyl-3-morpholin-4-yl-propyl)-amide]	150	> 10000
CC(C)C[C@H](NC(=O)c1ccc(C2CC2)c(Cc2ccc(F)cc2)n1)C(N)=O [Example 155, 5-Cyclopropyl-6-(4-fluoro-benzyl)-pyridine-2-carboxylic acid ((S)-1-carbamoyl-3-methyl-butyl)-amide]	0.7	123
CC(C)(NC(=O)c1ccc(N2CC(F)(F)C2)c(-c2cccc(Cl)c2)n1)c1nccs1 [Example 156, 6-(3-Chloro-phenyl)-5-(3,3-difluoro-azetidin-1-yl)-pyridine-2-carboxylic acid (1-methyl-1-thiazol-2-yl-ethyl)-amide]	334	> 10000
COCCOC[C@H](CC1CC1)NC(=O)c1ccc(N2CC(F)(F)C2)c(OCC2CC2)n1 [Example 157, 6-Cyclopropylmethoxy-5-(3,3-difluoro-azetidin-1-yl)-pyridine-2-carboxylic acid [(S)-2-cyclopropyl-1-(2-methoxy-ethoxymethyl)-ethyl]-amide]	27.4	> 10000
COCCOc1nc(C(=O)N[C@@H](CC(C)C)C(N)=O)ccc1N1CC(F)(F)C1 [Example 158, 5-(3,3-Difluoro-azetidin-1-yl)-6-(2-methoxy-ethoxy)-pyridine-2-carboxylic acid ((S)-1-carbamoyl-3-methyl-butyl)-amide]	22.9	> 10000
Cc1nc(C(C)(C)NC(=O)c2ccc(C3(O)CCC3)c(OCC3CC3)n2)no1 [Example 160, 6-Cyclopropylmethoxy-5-(1-hydroxy-cyclobutyl)-pyridine-2-carboxylic acid [1-methyl-1-(5-methyl-[1,2,4]oxadiazol-3-yl)-ethyl]-amide]	124	> 10000
COCCOc1nc(C(=O)N[C@@H](CC2CC2)C(N)=O)ccc1C1CC1 [Example 161, 5-Cyclopropyl-6-(2-methoxy-ethoxy)-pyridine-2-carboxylic acid ((S)-1-carbamoyl-2-cyclopropyl-ethyl)-amide]	124	> 10000
NC(=O)[C@H](CC1CC1)NC(=O)c1ccc(N(CC(F)(F)F)CC(F)(F)F)c(OCC2CC2)n1 [Example 162, 5-[Bis-(2,2,2-trifluoro-ethyl)-amino]-6-cyclopropylmethoxy-pyridine-2-carboxylic acid ((S)-1-carbamoyl-2-cyclopropyl-ethyl)-amide]	54.4	674
Cc1nc([C@H](CC2CC2)NC(=O)c2ccc(C3CC3)c(OCC3CC3)n2)no1 [Example 163, 5-Cyclopropyl-6-cyclopropylmethoxy-pyridine-2-carboxylic acid [(S)-2-cyclopropyl-1-(5-methyl-[1,2,4]oxadiazol-3-yl)-ethyl]-amide]	14.5	> 10000
Cc1nc([C@H](CC2CC2)NC(=O)c2ccc(N3CC(F)(F)C3)c(-c3cccc(Cl)c3)n2)no1 [Example 164, 6-(3-Chloro-phenyl)-5-(3,3-difluoro-azetidin-1-yl)-pyridine-2-carboxylic acid [(S)-2-cyclopropyl-1-(5-methyl-[1,2,4]oxadiazol-3-yl)-ethyl]-amide]	249	> 10000
CCC(CC)(NC(=O)c1ccc(N(CC(F)(F)F)CC(F)(F)F)c(OCC2CC2)n1)C(=O)NC [Example 165, 5-[Bis-(2,2,2-trifluoro-ethyl)-amino]-6-cyclopropylmethoxy-pyridine-2-carboxylic acid (1-ethyl-1-methylcarbamoyl-propyl)-amide]	7.2	1200
Cc1nc(C(C)(C)NC(=O)c2ccc(C3CC3)c(OCC3CCCO3)n2)no1 (stereo not shown) [Example 166, 5-Cyclopropyl-6-(tetrahydro-furan-2-ylmethoxy)-pyridine-2-carboxylic acid [1-methyl-1-(5-methyl-[1,2,4]oxadiazol-3-yl)-ethyl]-amide]	30.5	> 10000
CC(C)(C#N)NC(=O)c1ccc(C2CC2)c(OCC2CC2)n1 [Example 167, N-(2-Cyanopropan-2-yl)-5-cyclopropyl-6-(cyclopropylmethoxy)picolinamide]	206	> 10000
CNC(=O)[C@@H](NC(=O)c1ccc(C2CC2)c(OCC2CC2)n1)C(C)(C)C [Example 168, (S)-5-Cyclopropyl-6-(cyclopropylmethoxy)-N-(3,3-dimethyl-1-(methylamino)-1-oxobutan-2-yl)picolinamide]	0.6	313
CC(C)C(C)(NC(=O)c1ccc(C2CC2)c(OCC2CC2)n1)C(N)=O (stereo not shown) [Example 169, N-(1-Amino-2,3-dimethyl-1-oxobutan-2-yl)-5-cyclopropyl-6-(cyclopropylmethoxy)picolinamide]	182	> 10000

SMILES	EC50 [1] [nM]	EC50 [2] [nM]
CCC(C)(NC(=O)c1ccc(C2CC2)c(OCC2CC2)n1)C(N)=O (stereo not shown) [Example 170, N-(1-Amino-2-methyl-1-oxobutan-2-yl)-5-cyclopropyl-6-(cyclopropylmethoxy)picolinamide]	194	> 10000
Cc1nc(C2(NC(=O)c3ccc(C4CC4)c(OCC4CC4)n3)CCC2)no1 [Example 171, 5-Cyclopropyl-6-(cyclopropylmethoxy)-N-(1-(5-methyl-1,2,4-oxadiazol-3-yl)cyclobutyl)picolinamide]	46.8	> 10000
NC(=O)[C@@H](NC(=O)c1ccc(C2CC2)c(OCC2CC2)n1)c1ccccc1 [Example 172, (S)-N-(2-Amino-2-oxo-1-phenylethyl)-5-cyclopropyl-6-(cyclopropylmethoxy)picolinamide]	10.1	> 10000
NC(=O)[C@H](NC(=O)c1ccc(C2CC2)c(OCC2CC2)n1)c1ccccc1 [Example 173, (R)-N-(2-Amino-2-oxo-1-phenylethyl)-5-cyclopropyl-6-(cyclopropylmethoxy)picolinamide]	23.1	> 10000
CC(C)C[C@H](CO)NC(=O)c1ccc(C2CC2)c(OCC2CC2)n1 [Example 174, (R)-5-Cyclopropyl-6-(cyclopropylmethoxy)-N-(1-hydroxy-4-methylpentan-2-yl)picolinamide]	32	> 10000
O=C(NC1(CO)CCCC1)c1ccc(C2CC2)c(OCC2CC2)n1 [Example 175, 5-Cyclopropyl-6-(cyclopropylmethoxy)-N-(1-(hydroxymethyl)cyclopentyl)picolinamide]	47.8	> 10000
Cc1noc(C(C)(C)NC(=O)c2ccc(C3CC3)c(OCC3CC3)n2)n1 [Example 176, 5-Cyclopropyl-6-(cyclopropylmethoxy)-N-(2-(3-methyl-1,2,4-oxadiazol-5-yl)propan-2-yl)picolinamideinamide]	114	> 10000
CC(C)C[C@H](NC(=O)c1ccc(Br)c(Oc2ccc(F)cc2)n1)C(N)=O [Example 177, 5-Bromo-6-(4-fluoro-phenoxy)-pyridine-2-carboxylic acid ((S)-1-carbamoyl-3-methyl-butyl)-amide]	196	> 10000
CC(C)CC(C)(NC(=O)c1ccc(C2CC2)c(OCC2CC2)n1)C(N)=O (stereo not shown) [Example 178, N-(1-Amino-2,4-dimethyl-1-oxopentan-2-yl)-5-cyclopropyl-6-(cyclopropylmethoxy)picolinamide]	42.2	> 10000
CC(C)(C)C(NC(=O)c1ccc(C2CC2)c(OCC2CC2)n1)C(N)=O (stereo not shown) [Example 179, N-(1-Amino-3,3-dimethyl-1-oxobutan-2-yl)-5-cyclopropyl-6-(cyclopropylmethoxy)picolinamide]	3.8	514
NC(=O)C1(NC(=O)c2ccc(C3CC3)c(OCC3CC3)n2)CCOCC1 [Example 180, 5-Cyclopropyl-6-cyclopropylmethoxy-pyridine-2-carboxylic acid (4-carbamoyl-tetrahydro-pyran-4-yl)-amide]	423	> 10000
CNC(=O)[C@H](CC(C)C)NC(=O)c1ccc(C2CC2)c(OCC2CC2)n1 [Example 181, (S)-5-cyclopropyl-6-(cyclopropylmethoxy)-N-(4-methyl-1-(methylamino)-1-oxopentan-2-yl)picolinamide]	1.3	231
CNC(=O)[C@H](CC(C)(C)C)NC(=O)c1ccc(C2CC2)c(OCC2CC2)n1 [Example 182, (S)-5-Cyclopropyl-6-(cyclopropylmethoxy)-N-(4,4-dimethyl-1-(methylamino)-1-oxopentan-2-yl)picolinamide]	1.7	> 10000
CNC(=O)[C@@H](NC(=O)c1ccc(C2CC2)c(OCC2CCCO2)n1)C(C)(C)C (stereo partly drawn) [Example 183, 5-Cyclopropyl-N-((S)-3,3-dimethyl-1-(methylamino)-1-oxobutan-2-yl)-6-((tetrahydrofuran-2-yl)methoxy)picolinamide]	4	102
CNC(=O)[C@H](CC(C)C)NC(=O)c1ccc(C2CC2)c(OCC2CCCO2)n1 (stereo partly drawn) [Example 184, 5-Cyclopropyl-N-((S)-4-methyl-1-(methylamino)-1-oxopentan-2-yl)-6-((tetrahydrofuran-2-yl)methoxy)picolinamide]	3.9	> 10000
CNC(=O)[C@H](CC(C)(C)C)NC(=O)c1ccc(C2CC2)c(OCC2CCCO2)n1 (stereo partly drawn) [Example 185, 5-Cyclopropyl-N-((S)-4,4-dimethyl-1-(methylamino)-1-oxopentan-2-yl)-6-((tetrahydrofuran-2-yl)methoxy)picolinamide]	7.5	> 10000
